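The compound was tested at five concentrations on cells cultured in 96-well plates, with a 48-hour exposure period. GI50 is the concentration that inhibits growth by half.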 Calls of active or inactive are those of the source. Rule as the data show it: active = GI50 up to about 1.1 µM and inactive = higher.
How the values were obtained:
Assay in all cases: NCI-60 cell line screen, 48 h
A498 = test system: A498
A549 = test system: A549
ACHN = test system: ACHN
CCRF-CEM = test system: CCRF-CEM
HCT-15 = test system: HCT-15
IGROV-1 = test system: IGROV-1
LOX IMVI = test system: LOX IMVI
MDA-MB-435 = test system: MDA-MB-435
NCI/ADR-RES = test system: NCI/ADR-RES
SK-MEL-28 = test system: SK-MEL-28
SK-MEL-2 = test system: SK-MEL-2
SN12C = test system: SN12C
SNB-19 = test system: SNB-19
SW-620 = test system: SW-620
U-251 = test system: U-251
UACC-257 = test system: UACC-257
UO-31 = test system: UO-31
OVCAR-8 = test system: OVCAR-8
HL-60 = test system: HL-60

SMILES	GI50 (A498)	GI50 (A549)	GI50 (ACHN)	GI50 (CCRF-CEM)	GI50 (HCT-15) [µM]	GI50 (IGROV-1)	GI50 (LOX IMVI)	GI50 (MDA-MB-435)	GI50 (NCI/ADR-RES)	GI50 (SK-MEL-28)	GI50 (SK-MEL-2)	GI50 (SN12C)	GI50 (SNB-19)	GI50 (SW-620)	GI50 (U-251)	GI50 (UACC-257)	GI50 (UO-31)	GI50 (OVCAR-8)	GI50 (HL-60)
C=C(C)C1CC2=C(O1)C(=O)c1cccc(O)c1C2=O (centres undefined)	5.46 µM (inactive)	2.47 µM (inactive)	1.72 µM (inactive)	0.209 µM (active)	2.05	0.256 µM (active)	4.26 µM (inactive)	0.129 µM (active)	1.05 µM (active)	1.7 µM (inactive)	1.17 µM (inactive)	1.21 µM (inactive)	1.95 µM (inactive)	0.929 µM (active)	1.43 µM (inactive)	0.271 µM (active)	1.41 µM (inactive)	–	–
NC(CCC(=O)NC(CSC(=O)N(O)c1ccc(Cl)cc1)C(=O)NCC(=O)O)C(=O)O (centres undefined)	–	> 0.5 µM (active)	> 0.5 µM (active)	> 0.5 µM (active)	> 0.5	> 0.5 µM (active)	–	> 0.5 µM (active)	> 0.5 µM (active)	> 0.5 µM (active)	> 0.5 µM (active)	> 0.5 µM (active)	> 0.5 µM (active)	> 0.5 µM (active)	> 0.5 µM (active)	> 0.5 µM (active)	> 0.5 µM (active)	> 0.5 µM (active)	–
Cc1ccc(/N=N/c2c(O)ccc3ccccc23)c(C)c1	> 100 µM (inactive)	> 100 µM (inactive)	–	–	> 100	> 100 µM (inactive)	> 100 µM (inactive)	> 100 µM (inactive)	> 100 µM (inactive)	> 100 µM (inactive)	> 100 µM (inactive)	> 100 µM (inactive)	> 100 µM (inactive)	> 100 µM (inactive)	> 100 µM (inactive)	> 100 µM (inactive)	> 100 µM (inactive)	> 100 µM (inactive)	–
c1cc2c(cc1C(N1CCNCC1)N1CCNCC1)OCO2	> 100 µM (inactive)	> 100 µM (inactive)	> 100 µM (inactive)	–	> 100	> 100 µM (inactive)	> 100 µM (inactive)	> 100 µM (inactive)	> 100 µM (inactive)	> 100 µM (inactive)	> 100 µM (inactive)	> 100 µM (inactive)	> 100 µM (inactive)	> 100 µM (inactive)	> 100 µM (inactive)	> 100 µM (inactive)	> 100 µM (inactive)	> 100 µM (inactive)	–
COc1cc2c3c(n(C)c(=O)c2cc1OC)-c1cc2c(cc1/C3=C\CCCCCBr)OCO2	14.5 µM (inactive)	9.08 µM (inactive)	4.39 µM (inactive)	2.38 µM (inactive)	21.3	0.0546 µM (active)	3.01 µM (inactive)	–	32.4 µM (inactive)	0.115 µM (active)	32.2 µM (inactive)	5.96 µM (inactive)	6.5 µM (inactive)	8.32 µM (inactive)	3.51 µM (inactive)	25.1 µM (inactive)	4.66 µM (inactive)	9.53 µM (inactive)	4.02 µM (inactive)
O=[N+]([O-])C(C(Cl)=C(Cl)Cl)=C(n1cncn1)n1cncn1	> 100 µM (inactive)	> 22.1 µM (inactive)	19.3 µM (inactive)	3.37 µM (inactive)	17.8	16.6 µM (inactive)	17.7 µM (inactive)	30.8 µM (inactive)	25.1 µM (inactive)	32.6 µM (inactive)	> 100 µM (inactive)	12.4 µM (inactive)	> 100 µM (inactive)	18.8 µM (inactive)	34.6 µM (inactive)	31.3 µM (inactive)	18.5 µM (inactive)	19.2 µM (inactive)	–
CSc1cc(Cl)c(C)cc1S(=O)(=O)NC(=O)NNc1ccc(F)c(Cl)c1	> 100 µM (inactive)	> 100 µM (inactive)	> 100 µM (inactive)	54.3 µM (inactive)	> 100	> 100 µM (inactive)	> 100 µM (inactive)	> 100 µM (inactive)	> 100 µM (inactive)	> 100 µM (inactive)	> 100 µM (inactive)	> 100 µM (inactive)	> 100 µM (inactive)	> 100 µM (inactive)	> 100 µM (inactive)	–	–	> 100 µM (inactive)	–
Cc1cc(N2CCOCC2)nc2ccc(Cc3ccc4nc(N5CCOCC5)cc(C)c4c3)cc12	59.4 µM (inactive)	41.7 µM (inactive)	48.5 µM (inactive)	–	41.8	> 100 µM (inactive)	32.4 µM (inactive)	43.3 µM (inactive)	41.8 µM (inactive)	39.4 µM (inactive)	63.5 µM (inactive)	55.8 µM (inactive)	49.9 µM (inactive)	35.9 µM (inactive)	26.7 µM (inactive)	25.6 µM (inactive)	38.2 µM (inactive)	57.5 µM (inactive)	–
OCCN(C1=NCCN1)/[N+](=C/c1ccc(Cl)cc1)[CH-]c1ccc(Cl)cc1	–	> 100 µM (inactive)	> 100 µM (inactive)	61.8 µM (inactive)	61.8	> 100 µM (inactive)	51.6 µM (inactive)	> 100 µM (inactive)	> 100 µM (inactive)	> 100 µM (inactive)	27.1 µM (inactive)	> 100 µM (inactive)	> 100 µM (inactive)	> 100 µM (inactive)	> 100 µM (inactive)	> 100 µM (inactive)	> 100 µM (inactive)	> 100 µM (inactive)	–
CN(C)CCn1c(=O)nc2c3c(c([N+](=O)[O-])ccc31)Nc1ccc(O)cc1-2	6.32 µM (inactive)	2.53 µM (inactive)	3.44 µM (inactive)	0.948 µM (active)	16.7	1.16 µM (inactive)	1.27 µM (inactive)	10.4 µM (inactive)	34.2 µM (inactive)	14.8 µM (inactive)	15.7 µM (inactive)	2.61 µM (inactive)	2.03 µM (inactive)	1.73 µM (inactive)	1.53 µM (inactive)	8.28 µM (inactive)	3.44 µM (inactive)	1.82 µM (inactive)	–
c1ccc2nn(C3CCCCO3)nc2c1 (centres undefined)	–	> 100 µM (inactive)	> 100 µM (inactive)	> 100 µM (inactive)	> 100	> 100 µM (inactive)	–	> 100 µM (inactive)	> 100 µM (inactive)	–	> 100 µM (inactive)	> 100 µM (inactive)	> 100 µM (inactive)	–	> 100 µM (inactive)	> 100 µM (inactive)	> 100 µM (inactive)	> 100 µM (inactive)	–
Cc1ccc(-n2c(=S)[nH]c3ccc(Br)cc3c2=O)cc1	> 100 µM (inactive)	> 100 µM (inactive)	> 100 µM (inactive)	–	> 100	> 100 µM (inactive)	> 100 µM (inactive)	–	–	–	> 100 µM (inactive)	> 100 µM (inactive)	> 100 µM (inactive)	> 100 µM (inactive)	> 100 µM (inactive)	> 100 µM (inactive)	> 100 µM (inactive)	> 100 µM (inactive)	> 100 µM (inactive)
CN1CCN(C(=S)N(C)C(=O)c2cccs2)CC1	–	> 100 µM (inactive)	> 100 µM (inactive)	> 100 µM (inactive)	> 100	> 100 µM (inactive)	> 100 µM (inactive)	> 100 µM (inactive)	–	–	> 100 µM (inactive)	> 100 µM (inactive)	> 100 µM (inactive)	> 100 µM (inactive)	> 100 µM (inactive)	> 100 µM (inactive)	> 100 µM (inactive)	> 100 µM (inactive)	–
CCOC(=O)C1=C(C(=O)OCC)C2(c3ccccc3)N(O1)c1ccccc1C2(C)C (centres undefined)	58.7 µM (inactive)	45.5 µM (inactive)	–	39.4 µM (inactive)	–	41.8 µM (inactive)	–	–	–	44.6 µM (inactive)	30.9 µM (inactive)	–	38.3 µM (inactive)	94.8 µM (inactive)	34 µM (inactive)	39.2 µM (inactive)	20.6 µM (inactive)	48.3 µM (inactive)	22.7 µM (inactive)
OCC1C2CCC3(OCCO3)C12 (centres undefined)	–	> 100 µM (inactive)	> 100 µM (inactive)	> 100 µM (inactive)	> 100	> 100 µM (inactive)	> 100 µM (inactive)	> 100 µM (inactive)	> 100 µM (inactive)	> 100 µM (inactive)	> 100 µM (inactive)	> 100 µM (inactive)	> 100 µM (inactive)	> 100 µM (inactive)	> 100 µM (inactive)	> 100 µM (inactive)	15.4 µM (inactive)	> 100 µM (inactive)	–
CC(C)c1ccc2c(c1)/C(=C1/Nc3ccccc3C1=O)C(=O)N2	2.34 µM (inactive)	15.3 µM (inactive)	3.71 µM (inactive)	27.3 µM (inactive)	36.5	1.45 µM (inactive)	> 100 µM (inactive)	25.8 µM (inactive)	17 µM (inactive)	> 100 µM (inactive)	14.3 µM (inactive)	20.9 µM (inactive)	13 µM (inactive)	43.3 µM (inactive)	10.6 µM (inactive)	61.8 µM (inactive)	6.5 µM (inactive)	10.6 µM (inactive)	–
C=CC[P@]1(=O)O[C@H](c2ccccc2)C(C)N1C(C)C (some centres undefined)	> 100 µM (inactive)	> 100 µM (inactive)	> 100 µM (inactive)	> 100 µM (inactive)	> 100	> 100 µM (inactive)	> 100 µM (inactive)	–	–	> 100 µM (inactive)	> 100 µM (inactive)	> 100 µM (inactive)	> 100 µM (inactive)	> 100 µM (inactive)	> 100 µM (inactive)	> 100 µM (inactive)	> 100 µM (inactive)	> 100 µM (inactive)	> 100 µM (inactive)

Source: ChEMBL document CHEMBL1201862, “PubChem BioAssay data set” (2004)
